# Source: patent US7462464B1, “Method for the detection of antimicrobial residues in food and bodily fluid samples” (priority 1999, dated 2008)
# Legend:
# Format in all cases: cell-based
# [1] = test system: Bacillus stearothermophilus; assay: Premi Test microbial inhibition test, spiked bovine kidney pre-urine; conditions: part of sample with methylcellulose 1.5%, controls yellow after 185 minutes
# From the text: Fresh kidneys of 7 negative (negative in the sense of the presence of antibiotics) cows were obtained from a slaughterhouse. To obtain samples for testing for the presence or absence of antimicrobial drug residues, the rosettes of the kidneys were divided into pieces. The pieces were gently squeezed using a garlic press to obtain pre-urine.
# (§1) The samples were then examined using microbial inhibition test ampoules produced according to the methods described in EP 0005891 with the nutrients present in the agar. The said test is also known as Premi®Test (commercially available from DSM N.V., Delft, The Netherlands).
# 100 μl of each of the 7 squeezed samples (pre-urine) was added to the test ampoules and heated for 10 minutes at 80° C. in a waterbath, the ampoules were immediately placed in a waterbath of 64° C. and incubated following the instructions of the manufacturer.
# The experiment was executed as described in Example 1. However now to a part of the pre-urine sample the thickening agent methylcellulose (4000 c.p.i., Sigma) was added to a final concentration of 1.5%. Also spiked samples were prepared following the method described in Example 6.
# [2] = test system: Bacillus stearothermophilus; assay: Premi Test microbial inhibition test, spiked chicken meat juice with thickening agent
# Experimental: as §1
# Fresh chicken breast meat of a negative chicken was obtained from a slaughterhouse (negative in the sense of the presence of antibiotics). To obtain meat fluid for further testing pieces of meat were heated for 10 minutes at 64° C. and gently sqeezed using a garlic press. Spiked samples were prepared by adding Amoxicillin (0, 5 and 10 ppb), Oxytetracycline (0, 75 and 100 ppb) or Sulphadiazine (0, 75 and 100 ppb) to the meat juice.
# To a part of said samples the thickening agent methylcellulose (4000 c.p.i., Sigma) was added to a final concentration of 1.5%.
# 100 μl of each sample was added to the Premi®Test ampoules (in duplicate) following the procedure described in Example 1. However, since a thickening agent was added, the pre-incubation step was not required anymore. Also the heating of the samples for 10 minutes at 80° C. was not required for this specific sample.
# In addition a similar experiment was executed. However, now samples containing 10 ppb of Amoxycillin or 200 ppb of Oxytetracycline were prepared and the thickening agent bovine albumine (Sigma) was added to a final concentration of 6%.
# [3] = test system: Bacillus stearothermophilus; assay: Microbial inhibition test ampoules (EP 0005891), spiked raw milk; conditions: with or without bovine albumine 6% or heating 10 minutes at 80° C., controls yellow after 160-185 minutes
# Experimental: Raw milk samples of negative cows were obtained from a farmer (negative in the sense of the presence of antibiotics). Spiked samples were prepared by adding Penicillin G to the milk (0, 4 and 6 ppb). To a part of said samples the thickening agent bovine albumine (Sigma) was added to a final concentration of 6%. The samples were then examined using microbial inhibition test ampoules produced according to the method described in EP 0005891 with the nutrients in the agar. 100 μl of milk was added to the test ampoules. A part of the test ampoules with the raw milk sample was heated for 10 minutes at 80° C. as described in Example 1. All experiments were executed in five fold. The tests were further incubated following the methods described in Example 1.
# [4] = test system: Bacillus stearothermophilus; assay: Delvotest microbial inhibition test, spiked egg samples; conditions: heated 10 minutes at 80° C., incubated at 64° C., read after 140 minutes
# Experimental: A hole of approximately 1-2 cm2 was made in the egg, the egg yolk was pricked and the egg was placed with the hole down on a bottle allowing the egg white and egg yolk to drip into the bottle. After the egg had emptied, the bottle was closed and the sample was homogenized by shaking. To inactivate the natural inhibiting compounds present in the egg sample, 100 μl of each of the 5 samples was added on Delvotest® ampoules. The test was produced according to the methods described in EP 0005891 with the nutrients present in the agar. After heating for 10 minutes at 80° C. in a waterbath, the ampoules were immediately placed in a waterbath at 64° C. and incubated following the instructions of the producer. […] Egg samples were obtained according to the method described in Example 3. The samples were spiked by adding Penicillin G (0 and 4 ppb) or Sulphadiazine (0 and 100 ppb). The egg samples were added to Delvotest® ampoules (see Example 3) according to the method described in this invention: heated for 10 minutes at 80° C., and then, immediately placed in a waterbath at 64° C. and incubated following the instructions of the manufacturer.
compound,measurement,setting,value
CC1(C)S[C@@H]2[C@H](NC(=O)[C@H](N)c3ccc(O)cc3)C(=O)N2[C@H]1C(=O)O [Amoxicillin],test colour / result (purple = positive),[1]; pre-urine spiked with 5 ppb,remained purple (positive)
same,test colour / result (purple = positive),[1]; pre-urine spiked with 10 ppb,remained purple (positive)
same,test colour / result (purple = positive),"[2]; chicken meat juice spiked with 5 ppb, part of samples with methylcellulose 1.5%, after 160 minutes",remained purple (positive)
same,test colour / result (purple = positive),"[2]; chicken meat juice spiked with 10 ppb, bovine albumine 6%, after 165 minutes",remained purple
same,test colour / result (purple = positive),"[2]; chicken meat juice spiked with 10 ppb, part of samples with methylcellulose 1.5%, after 160 minutes",remained purple (positive)
CC1(C)S[C@@H]2[C@H](NC(=O)Cc3ccccc3)C(=O)N2[C@H]1C(=O)O [Penicillin G],test colour / result (purple = positive),[3]; raw milk spiked with 4 ppb,remained purple (positive)
same,test colour / result (purple = positive),[3]; raw milk spiked with 6 ppb,remained purple (positive)
same,"test colour / result (purple = positive, growth of test organism inhibited)",[4]; egg sample spiked with 4 ppb,remained purple (positive)
Nc1ccc(S(=O)(=O)Nc2ncccn2)cc1 [Sulphadiazine],test colour / result (purple = positive),[1]; pre-urine spiked with 75 ppb,remained purple (positive)
same,test colour / result (purple = positive),[1]; pre-urine spiked with 100 ppb,remained purple (positive)
same,"test colour / result (purple = positive, growth of test organism inhibited)",[4]; egg sample spiked with 100 ppb,remained purple (positive)
same,test colour / result (purple = positive),"[2]; chicken meat juice spiked with 75 ppb, part of samples with methylcellulose 1.5%, after 160 minutes",remained purple (positive)
same,test colour / result (purple = positive),"[2]; chicken meat juice spiked with 100 ppb, part of samples with methylcellulose 1.5%, after 160 minutes",remained purple (positive)
